Data reported in patent US11673878B2, “Benzazepine derivatives” (OTSUKA PHARMACEUTICAL CO., LTD., priority 2017, dated 2023).

Columns and labels:
[1] = target: T1, rat vasopressin V1a receptor (Rattus norvegicus, UniProt P30560); test: Binding inhibition test for rat V1a receptor (3H-AVP, rat hepatic membrane); conditions: inhibition of 3H-AVP binding, rat hepatic membrane V1a receptor fractions, 4° C., 2 hours; read-out: Binding affinity rV1a (IC50)
T1 construct: V1a receptor fractions derived from rat hepatic membrane; from tissue; host or cells: rat liver (hepatic membrane)
Method: (§1) Various compounds were studied in binding affinities for vasopressin receptors with an indicator of binding inhibition of rat vasopressin V1a receptor and vasopressin V2 receptor of ^3H-arginine vasopressin (AVP) (NET800, available from PerkinElmer Inc., Life Sciences).
(1) Binding Inhibition Test for Rat V1a Receptor (rV1aR)
50 μg of V1a receptor fractions derived from rat hepatic membrane were diluted with a reaction solution (100 mM Tris-HCl (pH 8.0), 0.1% BSA, 5 mM MgCl2, 1 mM EDTA) and added to each well of a 96-well plate. A compound was added to each well in various concentrations (0.3 nM to 100 nM), and ^3H-AVP was added thereto in the range of 1 nM to 3 nM. Reactions were carried out at 4° C. for 2 hours on the plate. Via receptor fractions were collected with a 96-well glass filter (Unifilter GF/B) after the reactions and washed with a washing solution (10 mM Tris-HCl (pH 8.0), 5 mM MgCl2, 1 mM EDTA) three times, and then the radioactivity of ^3H-AVP was measured with a scintillation counter.
(§2) ^3H-AVP binding rate in the presence of a compound was calculated by the following equation. Binding rate (%)=(B−NSB)/(TB−NSB)×100 (B: Binding amount of ^3H-AVP in the presence of each compound, NSB: Binding amount of ^3H-AVP in the presence of 1 μM of unlabeled AVP, TB: Binding amount of ^3H-AVP in the absence of 1 μM of unlabeled AVP)

[2] = target: T2, rat vasopressin V2 receptor (Rattus norvegicus, UniProt Q00788); test: Binding inhibition test for rat V2 receptor (3H-AVP, rV2R-CHO cells); conditions: inhibition of 3H-AVP binding, 4° C., 2 hours, read-out: Binding affinity rV2 (IC50)
T2 construct: expressed in transfected cells; host or cells: CHO cells (rV2R-CHO)
Method: as §1
(2) Binding Inhibition Test for Rat V2 Receptor (rV2R)
Rat V2 receptor-expressed CHO cells (rV2R—CHO) were incubated on 10% FBS-containing DMEM/F12 in a 24-well plate, and each cell was washed with D-PBS twice. A reaction solution (D-PBS containing 0.1% BSA and 0.05% sodium azide) comprising a compound in various concentrations (0.3 nM to 100 nM) was added to each well, and a certain amount of ^3H-AVP was added thereto (100-fold dilution). Reactions were carried out at 4° C. for 2 hours on the plate. Then, each well was washed with D-PBS twice and 0.1N NaOH was added to each well. The cells were collected, and the radioactivity of ^3H-AVP was measured with a scintillation counter.
as §2

[3] = Metabolic stability test in human liver microsomes; format: in vitro ADME; conditions: pH 7.4; human liver microsomes 1 mg/mL, test compound 1 μmol/L, NADPH and NADH, 37° C., n = 4; read-out: CLint (μL/min/mg) mean ± SD
Method: Reaction System and Incubation
According to methods of Obach and Jones, et al. (methods described in R. S. Obach, Drug Metab. Dispos. 1999 (27): 1350-1359 and H. Jones and J. B. Houston, Drug Metab. Dispos. 2004 (32): 973-982), the reaction system shown below was prepared and metabolic stabilities of test compounds (the present compounds and, tolvaptan) were evaluated using the reaction system shown below. Human liver microsomes purchased from Corning Inc. were used. Test compounds were dissolved in DMSO at the concentration of 10 mmol/L and then diluted with acetonitrile to prepare a 100 μmol/L solution for use in the test. The 100 μmol/L solutions were used in the experiment.
Human liver microsome 1 mg/mL
Co-factor (NADPH and NADH) 1 mmol/L each
Magnesium chloride 5 mmol/L
100 mmol/L Potassium phosphate buffer (pH 7.4)
The reaction mixture without co-factors was pre-incubated at 37° C. for 5 minutes, and then the reaction was initiated by the addition of the co-factors. The mixture was incubated for 0, 5, 10, 20, 30, and 60 minutes after the addition of the co-factors. An aliquot of the reaction mixture was removed and added to a methanol solution containing an internal standard (IS) and mixed to terminate the reaction at each predetermined time.
After the reaction was terminated, the mixture was separated by centrifugation and the supernatant was injected into a liquid chromatograph-tandem mass spectrometer (LC-MS/MS) to measure unchanged substances remained in the reaction system. The mass spectrometer was operated in a positive ion mode of the electrospray ionization (ESI) method. Unchanged substances and the IS were detected by multiple reaction monitoring (MRM) transitions using selected precursor and product ions set.
The remaining ratios of test compounds were calculated by the following equation. Remaining ratio=(Peak area ratio of a test compound to IS at t minutes after incubation)÷(Peak area ratio of a test compound to IS at 0 minute)
The slope of X-axis (the incubation time) and Y-axis (logarithm of the remaining ratio) was calculated by a non-linear least square method. Hepatic intrinsic clearance (CLint) was calculated by the following equation. CLint(μL/min/mg)=−(Slope(min^−1))÷1(mg/mL)×1000

[4] = Pharmacokinetics study in mice, single oral dose; format: in vivo; conditions: mouse; male ICR mice, single-dose oral administration of 30 mg/kg, plasma
Method: A pharmacokinetics (PK) study was performed using male ICR mice to compare the oral absorption properties of the present compounds with tolvaptan. A test compound was suspended in a 1% hydroxypropyl methylcellulose (HPMC) solution to be adjusted to the concentration of 4.5 mg/mL. The present compounds were used as the forms obtained in the above examples (including the amorphous form) for a test compound, or used after spray drying, if needed.
Male ICR mice (7-week old) were freely fed food and water and weighed on an electronic scale. Then, a test compound was orally administered at the dose of 30 mg/kg […]. After the oral administration, blood was collected from the abdominal vena cava under isoflurane anesthesia using a 1 mL heparinized syringe with a 26 G injection needle. Blood was separated by centrifugation at 4° C., 3000 rpm for 10 minutes to give plasma in a supernatant. The plasma concentration of a test compound was measured by LC-MS/MS.
The following PK parameters were calculated using the mean plasma concentrations of unchanged substances obtained from two animals at each time point.
Cmax: Maximum plasma concentration (μg/mL)
tmax: Time-to-maximum plasma concentration (h)
AUCinf: Area under the plasma concentration-time curve from administration to infinite time (μg h/mL)

T2 sequence (Q00788 whole entry): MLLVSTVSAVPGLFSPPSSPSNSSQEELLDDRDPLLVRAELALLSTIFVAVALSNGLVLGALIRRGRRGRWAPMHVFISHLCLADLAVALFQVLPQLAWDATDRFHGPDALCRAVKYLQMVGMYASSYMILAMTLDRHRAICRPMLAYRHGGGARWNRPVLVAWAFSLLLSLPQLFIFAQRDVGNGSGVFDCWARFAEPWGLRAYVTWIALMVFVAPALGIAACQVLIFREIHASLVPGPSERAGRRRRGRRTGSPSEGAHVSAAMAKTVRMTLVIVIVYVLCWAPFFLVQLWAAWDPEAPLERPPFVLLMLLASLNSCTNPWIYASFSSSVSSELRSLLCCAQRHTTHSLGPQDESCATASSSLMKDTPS
T1 sequence (P30560 whole entry): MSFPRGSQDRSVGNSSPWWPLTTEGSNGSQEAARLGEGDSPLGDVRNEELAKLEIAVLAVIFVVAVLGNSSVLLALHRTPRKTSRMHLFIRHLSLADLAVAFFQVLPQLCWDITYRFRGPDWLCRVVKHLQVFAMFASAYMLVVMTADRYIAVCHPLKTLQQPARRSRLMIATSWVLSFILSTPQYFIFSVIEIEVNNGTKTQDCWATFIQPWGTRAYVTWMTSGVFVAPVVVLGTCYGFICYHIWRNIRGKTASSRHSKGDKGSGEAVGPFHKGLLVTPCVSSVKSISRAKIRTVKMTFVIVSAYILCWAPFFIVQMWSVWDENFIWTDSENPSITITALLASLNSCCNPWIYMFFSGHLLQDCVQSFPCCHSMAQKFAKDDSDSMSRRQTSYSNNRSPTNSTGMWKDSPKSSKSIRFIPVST

| Compound | IC50 [1] | IC50 [2] | microsomal CLint at 1 μmol/L [3] | AUC(0-inf) [4] | Cmax [4] | Tmax [4] |
| --- | --- | --- | --- | --- | --- | --- |
| O=C(Nc1ccc(C(=O)N2CCC(F)(F)[C@](O)(CO)c3cc(Cl)ccc32)cc1)c1cc(F)ccc1Cl [Example 23, 2-chloro-N-{4-[(5R)-7-chloro-4,4-difluoro-5-hydroxy-5-(hydroxymethyl)-2,3,4,5-tetrahydro-1H-1-benzazepine-1-carbonyl]phenyl}-5-fluorobenzamide] | 2.6 nM | 1 nM | 1.11 ± 2.21 µL/min/mg | 71300 ng·h/mL | 5420 ng/mL | 4 h |
| O=C(Nc1ccc(C(=O)N2CCC(F)(F)[C@](O)(CO)c3cc(Cl)ccc32)cn1)c1ccccc1-c1ccccc1 [Example 63, N-{5-[(5R)-7-chloro-4,4-difluoro-5-hydroxy-5-(hydroxymethyl)-2,3,4,5-tetrahydro-1H-1-benzazepine-1-carbonyl]pyridin-2-yl}-[1,1′-biphenyl]-2-carboxamide] | 1.4 nM | 1.1 nM | 3.1 ± 3.58 µL/min/mg | 14400 ng·h/mL | 4440 ng/mL | 1 h |
| O=C1c2cc(F)ccc2CCN1c1ccc(C(=O)N2CCC(F)(F)[C@](O)(CO)c3cc(Cl)ccc32)cc1 [Example 187, 2-{4-[(5R)-7-chloro-4,4-difluoro-5-hydroxy-5-(hydroxymethyl)-2,3,4,5-tetrahydro-1H-1-benzazepine-1-carbonyl]phenyl}-7-fluoro-1,2,3,4-tetrahydroisoquinolin-1-one] | 2.6 nM | 0.4 nM | < 4 µL/min/mg | 5440 ng·h/mL | 2040 ng/mL | 1 h |
| O=C(Nc1ccc(C(=O)N2CCC(F)(F)[C@](O)(CO)c3cc(Cl)ccc32)cn1)c1ccc(Cl)cc1Cl [Example 51, 2,4-dichloro-N-{5-[(5R)-7-chloro-4,4-difluoro-5-hydroxy-5-(hydroxymethyl)-2,3,4,5-tetrahydro-1H-1-benzazepine-1-carbonyl]pyridin-2-yl}benzamide] | 16.1 nM | 1.7 nM | < 4 µL/min/mg | 53800 ng·h/mL | 5070 ng/mL | 1 h |
| O=C(Nc1ccc(C(=O)N2CCC(F)(F)[C@](O)(CO)c3cc(Cl)ccc32)cn1)c1cccnc1-c1ccccc1 [Example 97, N-{5-[(5R)-7-chloro-4,4-difluoro-5-hydroxy-5-(hydroxymethyl)-2,3,4,5-tetrahydro-1H-1-benzazepine-1-carbonyl]pyridin-2-yl}-2-phenylpyridine-3-carboxamide] | 5.4 nM | 1.4 nM | 6.98 ± 4.77 µL/min/mg | 8310 ng·h/mL | 3130 ng/mL | 1 h |
| O=C(Nc1ccc(C(=O)N2CCC(F)(F)[C@](O)(CO)c3cc(Cl)ccc32)cc1)c1cc(F)ccc1C(F)(F)F [Example 127, N-{4-[(5R)-7-chloro-4,4-difluoro-5-hydroxy-5-(hydroxymethyl)-2,3,4,5-tetrahydro-1H-1-benzazepine-1-carbonyl]phenyl}-5-fluoro-2-(trifluoromethyl)benzamide] | 7.2 nM | 1.8 nM | < 4 µL/min/mg | 93800 ng·h/mL | 7950 ng/mL | 1 h |
| COc1cc(C(=O)N2CCC(F)(F)[C@](O)(CO)c3cc(Cl)ccc32)ccc1NC(=O)c1ccc(F)cc1Cl [Example 58, 2-chloro-N-{4-[(5R)-7-chloro-4,4-difluoro-5-hydroxy-5-(hydroxymethyl)-2,3,4,5-tetrahydro-1H-1-benzazepine-1-carbonyl]-2-methoxyphenyl}-4-fluorobenzamide] | 9.3 nM | 1.3 nM | 1.81 ± 2.1 µL/min/mg | 44900 ng·h/mL | 5890 ng/mL | 1 h |
| O=C(Nc1ccc(C(=O)N2CCC(F)(F)[C@](O)(CO)c3cc(Cl)ccc32)cn1)c1cc(F)ccc1-c1ccccc1F [Example 165, N-{5-[(5R)-7-chloro-4,4-difluoro-5-hydroxy-5-(hydroxymethyl)-2,3,4,5-tetrahydro-1H-1-benzazepine-1-carbonyl]pyridin-2-yl}-2′,4-difluoro-[1,1′-biphenyl]-2-carboxamide] | 1.7 nM | 3.4 nM | 3.61 ± 2.43 µL/min/mg | 41500 ng·h/mL | 7720 ng/mL | 1 h |
| O=C(Nc1ccc(C(=O)N2CCC(F)(F)C(O)(CO)c3cc(Cl)ccc32)cn1)c1ccccc1C(F)(F)F (stereo not drawn) [Example 2, N-{5-[7-chloro-4,4-difluoro-5-hydroxy-5-(hydroxymethyl)-2,3,4,5-tetrahydro-1H-1-benzazepine-1-carbonyl]pyridin-2-yl}-2-(trifluoromethyl)benzamide] | 3.4 nM | 2.1 nM | < 4 µL/min/mg | 95700 ng·h/mL | 9230 ng/mL | 1 h |
